Measurements reported in patent US5912183A, “Peptide inhibitors of mitogenesis and motogenesis” (Pharmacia & Upjohn S.p.A., priority 1993, dated 1999).
Residues, ends and D or L forms follow the SMILES beside them.

How the values were obtained:
[1] = target: T1, binding of p85 to HGF/SF receptor (Bos taurus, UniProt P23727); test: Competition of phosphopeptides with p85 for association with immobilized recombinant HGF/SF receptor (in vitro kinase assay readout); set-up: species or system human
T1 construct: made in house; host or cells: Sf9 insect cells (baculovirus), for both p85 and the receptor
T1 sequence (P23727 whole entry): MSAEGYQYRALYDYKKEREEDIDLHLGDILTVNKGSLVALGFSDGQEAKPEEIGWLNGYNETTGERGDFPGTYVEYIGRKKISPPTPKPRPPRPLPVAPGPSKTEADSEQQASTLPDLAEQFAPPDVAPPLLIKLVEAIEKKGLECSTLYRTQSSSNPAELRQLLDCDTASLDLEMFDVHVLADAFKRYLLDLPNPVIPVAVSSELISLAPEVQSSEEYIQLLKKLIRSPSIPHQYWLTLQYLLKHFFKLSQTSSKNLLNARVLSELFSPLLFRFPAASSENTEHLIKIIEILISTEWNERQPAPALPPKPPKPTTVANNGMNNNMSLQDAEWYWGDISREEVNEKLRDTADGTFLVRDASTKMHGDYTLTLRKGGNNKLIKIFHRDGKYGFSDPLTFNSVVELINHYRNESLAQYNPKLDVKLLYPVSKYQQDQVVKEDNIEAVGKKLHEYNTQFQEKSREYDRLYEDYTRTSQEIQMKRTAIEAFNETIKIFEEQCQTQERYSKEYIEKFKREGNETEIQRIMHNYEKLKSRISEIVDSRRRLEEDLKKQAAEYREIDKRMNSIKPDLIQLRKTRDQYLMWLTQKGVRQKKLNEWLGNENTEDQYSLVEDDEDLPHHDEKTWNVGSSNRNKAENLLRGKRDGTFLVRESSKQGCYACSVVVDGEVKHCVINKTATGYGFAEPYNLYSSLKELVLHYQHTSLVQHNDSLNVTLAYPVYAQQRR
Summary of the method: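 Sf9 lysates expressing p85 were pre-incubated 1 h at 4°C with phosphopeptides (10 μM; also 10 nM, 100 nM, 1 μM), then bound to immunoprecipitated baculovirus-expressed receptor pre-phosphorylated with 10 μM cold ATP. Bound p85 was detected by in vitro kinase labelling with [γ-32P]ATP, 15 min at 25°C, and SDS-PAGE.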

[2] = test system: binding of PI 3-kinase holoenzyme to HGF/SF receptor; test: Competition of phosphopeptides with PI 3-kinase holoenzyme (A549 cytosolic extracts) for association with recombinant HGF/SF receptor (PI 3-kinase activity assay); set-up: species or system human; conditions: summary statement in the description
Experimental: FIG. 3. Inhibition of binding of PI 3-kinase holoenzyme to HGF/SF receptor by tyrosine-phosphorylated peptides. The phosphopeptides which efficiently out-competed p85 (FIG. 1) were assayed for the ability to interfere with binding of the PI 3-kinase holoenzyme to the HGF/SF receptor. Cytosolic extracts from three days-starved A549 cells were pre-incubated with each of the phosphopeptides (10 μM) prior to incubation with the immobilized recombinant HGF/SF receptor. The presence of receptor-associated PI 3-kinase in the immunocomplexes was determined by PI 3-kinase activity assay, as described in Materials and Methods of Example 4. The position of the phosphatidylinositol-3-phosphate (PIP) product of the PI 3-kinase reaction is indicated.
In vitro association experiments. Sf9 cells expressing the recombinant HGF/SF receptor (approximately 4×10^6 cells/point) were lysed 36 hours after infection in buffer A (10 mM Tris-HCl buffer pH 7.5, 10% glycerol, 1% Triton X-100, 150 mM NaCl, 5 mM EDTA), supplemented with 0.2 mM phenyl-methylsulfonyl fluoride, 1 μg/ml leupeptin, 0.1 TIU/ml aprotinin and 1 μg/ml pepstatin. […]
The presence of the p85 subunit of the PI 3-kinase in the receptor immunoprecipitate was determined by: i) labelling of the receptor and associated proteins with [γ-^32 P]ATP by in vitro kinase assay; ii) Western immunoblotting; iii) PI 3-kinase activity assay. […]

With CSCC[C@H](NC(=O)[C@@H](NC(=O)[C@H](CCC(=O)O)NC(=O)[C@@H](N)Cc1ccc(OP(=O)(O)O)cc1)C(C)C)C(=O)N[C@@H](CC(C)C)C(=O)N[C@@H](CCCCN)C(=O)N[C@@H](CS)C(=O)N[C@@H](Cc1c[nH]c2ccccc12)C(=O)O [H-Tyr*-Glu-Val-Met-Leu-Lys-Cys-Trp-OH] (HELM PEPTIDE1{[N[C@@H](Cc1ccc(OP(=O)(O)O)cc1)C(=O)[*:2]].E.V.M.L.K.C.W}$$$$V2.0) the “Inhibition of binding of p85 to HGF/SF receptor” value ([1]; phosphopeptide 10 μM, p85 from Sf9 lysates, FIG. 1) was “efficiently outcompeted p85”, the “Efficiency at outcompeting p85 (relative affinity for p85)” value ([1]; phosphopeptides at 10 nM, 100 nM, 1 μM, FIG. 2, rank order SEQ. ID NO: 19, then 22, 20, 18) was “highest” and the “Binding to PI 3-kinase” value [2] was “capable of binding to PI 3-kinase”.
